Data reported in paper PMC4516563 (Biochimica et biophysica acta, 2015).

Assays:
[1] = tested on: human pancreatic cancer PANC1; conditions: disc diffusion, 30-45 ug per disc, 7-10 days; result in words
human brain U251N = conditions: disc diffusion, 30-45 ug per disc, 7-10 days; result in words
[2] = pharmacokinetic studies, clinical trials in patients; cited from earlier work
human colon HCT116 = conditions: disc diffusion, 30-45 ug per disc, 7-10 days; result in words

Substance: Kahalalide F [KF]
- cytotoxicity based on the zone assay, PANC-1 [1]: minimal
- cytotoxicity based on the zone assay, U251N (human brain U251N): minimal
- half-life [2]: approximately 30 min
- cytotoxicity based on the zone assay, HCT-116 (human colon HCT116): minimal
